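Where inhibition never reached the appropriate level, the endpoint shown equals the highest concentration tested. Otherwise, values were interpolated linearly from a five-concentration, 48-hour dose response in 96-well plates. At the GI50, growth is halved. The concentration for full growth arrest is given as TGI.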
Experiments:
Assay in all cases: growth of human tumour cells (NCI), 48 h
[1] = system: A498 renal
[2] = system: A549 NSCLC
[3] = system: ACHN renal
[4] = system: BT-549 breast
[5] = system: CAKI-1 renal
[6] = system: CCRF-CEM leukemia
[7] = system: COLO 205 colon
[8] = system: DU-145 prostate
[9] = system: EKVX NSCLC
[10] = system: HCC-2998 colon
[11] = system: HCT-116 colon
[12] = system: HCT-15 colon
[13] = system: HL-60(TB) leukemia
[14] = system: HOP-62 NSCLC
[15] = system: HS 578T breast
[16] = system: HT29 colon
[17] = system: IGROV1 ovarian
[18] = system: K-562 leukemia
[19] = system: KM12 colon
[20] = system: LOX IMVI melanoma
[21] = system: M14 melanoma
[22] = system: MALME-3M melanoma
[23] = system: MCF7 breast
[24] = system: MDA-MB-231 breast
[25] = system: MOLT-4 leukemia
[26] = system: NCI-H226 lung
[27] = system: NCI-H23 lung
[28] = system: NCI-H460 lung
[29] = system: NCI-H522 lung
[30] = system: NCI/ADR-RES ovarian
[31] = system: OVCAR-3 ovarian
[32] = system: OVCAR-4 ovarian
[33] = system: OVCAR-5 ovarian
[34] = system: OVCAR-8 ovarian
[35] = system: PC-3 prostate
[36] = system: RPMI-8226 leukemia
[37] = system: SF-268 CNS
[38] = system: SF-295 CNS
[39] = system: SF-539 CNS
[40] = system: SK-MEL-2 melanoma
[41] = system: SK-MEL-28 melanoma
[42] = system: SK-MEL-5 melanoma
[43] = system: SK-OV-3 ovarian
[44] = system: SN12C renal
[45] = system: SNB-19 CNS
[46] = system: SNB-75 CNS
[47] = system: SR leukemia
[48] = system: SW-620 colon
[49] = system: T-47D breast
[50] = system: TK-10 renal
[51] = system: U251 CNS
[52] = system: UACC-257 melanoma
[53] = system: UACC-62 melanoma
[54] = system: UO-31 renal
[55] = system: 786-0 renal
[56] = system: HOP-92 NSCLC
[57] = system: MDA-MB-435
[58] = system: RXF 393 renal

## O=C(NCc1cn(Cc2cccc(Oc3ccccc3)c2)nn1)c1cccnc1Nc1ccccc1
[1]
  GI50: 1.88 µM
  TGI: 8.19 µM
[2]
  GI50: 4.81 µM
  TGI: 95.2 µM
[3]
  GI50: 5.67 µM
  TGI: > 100 µM
[4]
  GI50: 2.8 µM
  TGI: 8.53 µM
[5]
  GI50: 5.45 µM
  TGI: > 100 µM
[6]
  GI50: 3.34 µM
  TGI: > 100 µM
[7]
  GI50: 2.79 µM
  TGI: 5.75 µM
[8]
  GI50: 3.94 µM
  TGI: 33.8 µM
[9]
  GI50: 5.18 µM
  TGI: > 100 µM
[10]
  GI50: 3.7 µM
  TGI: 21.8 µM
[11]
  GI50: 3.4 µM
  TGI: 23.5 µM
[12]
  GI50: 3.81 µM
  TGI: > 100 µM
[13]
  GI50: 3.74 µM
  TGI: 19.5 µM
[14]
  GI50: 5.58 µM
  TGI: > 100 µM
[15]
  GI50: 3.68 µM
  TGI: > 100 µM
[16]
  GI50: 3.65 µM
  TGI: 11.6 µM
[17]
  GI50: 5.86 µM
  TGI: > 100 µM
[18]
  GI50: 3.69 µM
  TGI: > 100 µM
[19]
  GI50: 3.63 µM
  TGI: 46.4 µM
[20]
  GI50: 4.54 µM
  TGI: > 100 µM
[21]
  GI50: 2.86 µM
  TGI: 9.86 µM
[22]
  GI50: 16.1 µM
  TGI: > 100 µM
[23]
  GI50: 3.67 µM
  TGI: > 100 µM
[24]
  GI50: 2.25 µM
  TGI: 5.97 µM
[25]
  GI50: 3.74 µM
  TGI: > 100 µM
[26]
  GI50: 3.24 µM
  TGI: > 100 µM
[27]
  GI50: 3.73 µM
  TGI: > 100 µM
[28]
  GI50: 2.85 µM
  TGI: 10.5 µM
[29]
  GI50: 2.11 µM
  TGI: 5.06 µM
[30]
  GI50: 2.47 µM
  TGI: > 100 µM
[31]
  GI50: 2.28 µM
  TGI: 5.46 µM
[32]
  GI50: 5.42 µM
  TGI: > 100 µM
[33]
  GI50: 5.73 µM
  TGI: > 100 µM
[34]
  GI50: 4.39 µM
  TGI: > 100 µM
[35]
  GI50: 3.27 µM
  TGI: > 100 µM
[36]
  GI50: 3.61 µM
  TGI: > 100 µM
[37]
  GI50: 3.22 µM
  TGI: 37.5 µM
[38]
  GI50: 3.69 µM
  TGI: > 100 µM
[39]
  GI50: 3.1 µM
  TGI: 8.6 µM
[40]
  GI50: 6.05 µM
  TGI: 75.1 µM
[41]
  GI50: 4.93 µM
  TGI: > 100 µM
[42]
  GI50: 3.89 µM
  TGI: 28.3 µM
[43]
  GI50: 3.79 µM
  TGI: 15.1 µM
[44]
  GI50: 4.3 µM
  TGI: 51.2 µM
[45]
  GI50: 3.27 µM
  TGI: > 100 µM
[46]
  GI50: 1.94 µM
  TGI: 9.96 µM
[47]
  GI50: 2.57 µM
  TGI: > 100 µM
[48]
  GI50: 3.97 µM
  TGI: > 100 µM
[49]
  GI50: 5.4 µM
  TGI: 63.2 µM
[50]
  GI50: 4.3 µM
  TGI: 28.4 µM
[51]
  GI50: 3.61 µM
  TGI: 18.9 µM
[52]
  GI50: 14.2 µM
  TGI: 86.4 µM
[53]
  GI50: 3.02 µM
  TGI: 33.8 µM
[54]
  GI50: 2.49 µM
  TGI: > 100 µM

## COC(=O)[C@]1(C)CCCn2c(=O)n(-c3ccccc3)c(=O)n21
[55]
  TGI: > 100 µM
[1]
  TGI: > 100 µM
[2]
  TGI: > 100 µM
[3]
  TGI: > 100 µM
[4]
  TGI: > 100 µM
[5]
  TGI: > 100 µM
[6]
  TGI: > 100 µM
[7]
  TGI: > 100 µM
[8]
  TGI: > 100 µM
[9]
  TGI: > 100 µM
[10]
  TGI: > 100 µM
[11]
  TGI: > 100 µM
[12]
  TGI: > 100 µM
[14]
  TGI: > 100 µM
[56]
  TGI: > 100 µM
[15]
  TGI: > 100 µM
[16]
  TGI: > 100 µM
[17]
  TGI: > 100 µM
[18]
  TGI: > 100 µM
[19]
  TGI: > 100 µM
[20]
  TGI: > 100 µM
[21]
  TGI: > 100 µM
[23]
  TGI: > 100 µM
[24]
  TGI: > 100 µM
[57]
  TGI: > 100 µM
[25]
  TGI: > 100 µM
[26]
  TGI: > 100 µM
[27]
  TGI: > 100 µM
[29]
  TGI: > 100 µM
[30]
  TGI: > 100 µM
[31]
  TGI: > 100 µM
[32]
  TGI: > 100 µM
[33]
  TGI: > 100 µM
[34]
  TGI: > 100 µM
[35]
  TGI: > 100 µM
[36]
  TGI: > 100 µM
[58]
  TGI: > 100 µM
[37]
  TGI: > 100 µM
[38]
  TGI: > 100 µM
[39]
  TGI: > 100 µM
[40]
  TGI: > 100 µM
[41]
  TGI: > 100 µM
[42]
  TGI: > 100 µM
[43]
  TGI: > 100 µM
[44]
  TGI: > 100 µM
[45]
  TGI: > 100 µM
[46]
  TGI: > 100 µM
[48]
  TGI: > 100 µM
[49]
  TGI: > 100 µM
[50]
  TGI: > 100 µM
[51]
  TGI: > 100 µM
[52]
  TGI: > 100 µM
[53]
  TGI: > 100 µM
[54]
  TGI: > 100 µM

Reference: PubChem BioAssay (NCI)
